The conditions of data set [1]: in vivo; cited from earlier work.
Another data set concerns rat anhedonia model. The following applies: cited from earlier work.
The test system of data set [2] is patients with major depressive disorder (MDD). The note with it: open clinical trial, 21 patients with MDD, 8 weeks, 400 mg b.i.d.; cited from earlier work.
The target of a further data set is T1, Rec. human COMT (Homo sapiens, UniProt P21964).
T1 sequence (P21964 1-271): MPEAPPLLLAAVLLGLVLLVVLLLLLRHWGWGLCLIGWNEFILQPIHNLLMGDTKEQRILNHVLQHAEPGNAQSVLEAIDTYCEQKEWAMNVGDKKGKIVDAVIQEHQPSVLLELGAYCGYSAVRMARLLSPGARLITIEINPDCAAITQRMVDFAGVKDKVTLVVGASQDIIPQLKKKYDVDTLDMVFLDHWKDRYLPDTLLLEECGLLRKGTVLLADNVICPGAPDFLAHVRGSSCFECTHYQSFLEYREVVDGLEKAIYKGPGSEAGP
The experiment in a line: COMT-Fluorescence Assay. Type of data set: biochemical. The following applies: COMT-fluorescence assay, rec. human COMT 25 nM, 4-Nitrocatechol-Alexa488 200 nM, SAM 500 nM; read-out: IC50. The protocol:
This intramolecular interaction is disturbed if the 4-Nitrocatechol is methylated. […] This increase of fluorescence intensity can be followed in a kinetic measurement. The slope in the linear range of the kinetic is calculated. An inhibitor compound decreases the slope.
Signal [rfu/min]=(rfu(end-point)−rfu(startpoint))/incubation_time_#2

Each structure is given as a SMILES string.

`Cc1ccc(C(=O)c2cc(O)c(O)c([N+](=O)[O-])c2)cc1` [Tolcapone, tolcapone]: the brain/plasma ratio in data set [1] is roughly 0.01. The anti-depressant activity result (in the data set on rat anhedonia model; in data set [2]) was “anti-depressant activity” each time.

`COC(=O)c1cc(O)c2nc[nH]c(=O)c2c1` [Example 2, Methyl 8-hydroxy-4-oxo-3,4-dihydroquinazoline-6-carboxylate]: the concentration for half-maximal inhibition (IC50) at Rec. human COMT was found to be 30 nM.

With `COc1ccc(C)cc1-c1cc(O)c2nc[nH]c(=O)c2c1` [Example 36, 8-Hydroxy-6-(2-methoxy-5-methylphenyl)quinazolin-4(3H)-one], the IC50 at Rec. human COMT worked out at 80 nM.

As to `Cc1cc(C(=O)N2CCN(C)CC2)sc1-c1cc(O)c2nc[nH]c(=O)c2c1` [Example 103, 8-Hydroxy-6-[3-methyl-5-(4-methyl-piperazine-1-carbonyl)-thiophen-2-yl]-3H-quinazolin-4-one], the IC50 on Rec. human COMT amounted to 10 nM.

Turning to `O=c1[nH]cnc2c(O)cc(-c3ccccc3COCCN3CCCC3)cc12` [Example 239, 8-Hydroxy-6-[2-(2-pyrrolidin-1-yl-ethoxymethyl)-phenyl]-3H-quinazolin-4-one; compound with trifluoro-acetic acid], the IC50 on Rec. human COMT came to 50 nM.

On to `Cc1ccc(C)c2c1C=C(c1cc(O)c3nc[nH]c(=O)c3c1)CC2` [Example 19, 6-(5,8-dimethyl-3,4-dihydro-naphthalen-2-yl)-8-hydroxy-3H-quinazolin-4-one], for which, on Rec. human COMT, the IC50 was found to be 80 nM.

Consider `O=c1[nH]cnc2c(O)cc(-c3ccc(F)cc3)c(-c3ccccc3)c12` [Example 49, 6-(4-Fluorophenyl)-8-hydroxy-5-phenylquinazolin-4(3H)-one], for which, at Rec. human COMT, the IC50 came out at 20 nM.

On to `O=c1[nH]cnc2c(O)cc(-c3cnn(-c4ccc(F)cc4)c3)cc12` [Example 152, 6-[1-(4-Fluoro-phenyl)-1H-pyrazol-4-yl]-8-hydroxy-3H-quinazolin-4-one], for which the half-inhibitory concentration (IC50) on Rec. human COMT is 70 nM.

What is called IC50 is the midpoint of a concentration-inhibition curve.

The values are drawn from patent US9656971B2, “COMT inhibitors” (Hoffmann-La Roche Inc., priority 2012, dated 2017).
